This note sets out measurements from ChEMBL document CHEMBL3124916, “On the histone lysine methyltransferase activity of fungal metabolite chaetocin” (J Med Chem, 2013).

The target in data set [1] is T1, Histone-lysine N-methyltransferase EHMT2 (Homo sapiens) (UniProt Q96KQ7).
T1 sequence (whole entry): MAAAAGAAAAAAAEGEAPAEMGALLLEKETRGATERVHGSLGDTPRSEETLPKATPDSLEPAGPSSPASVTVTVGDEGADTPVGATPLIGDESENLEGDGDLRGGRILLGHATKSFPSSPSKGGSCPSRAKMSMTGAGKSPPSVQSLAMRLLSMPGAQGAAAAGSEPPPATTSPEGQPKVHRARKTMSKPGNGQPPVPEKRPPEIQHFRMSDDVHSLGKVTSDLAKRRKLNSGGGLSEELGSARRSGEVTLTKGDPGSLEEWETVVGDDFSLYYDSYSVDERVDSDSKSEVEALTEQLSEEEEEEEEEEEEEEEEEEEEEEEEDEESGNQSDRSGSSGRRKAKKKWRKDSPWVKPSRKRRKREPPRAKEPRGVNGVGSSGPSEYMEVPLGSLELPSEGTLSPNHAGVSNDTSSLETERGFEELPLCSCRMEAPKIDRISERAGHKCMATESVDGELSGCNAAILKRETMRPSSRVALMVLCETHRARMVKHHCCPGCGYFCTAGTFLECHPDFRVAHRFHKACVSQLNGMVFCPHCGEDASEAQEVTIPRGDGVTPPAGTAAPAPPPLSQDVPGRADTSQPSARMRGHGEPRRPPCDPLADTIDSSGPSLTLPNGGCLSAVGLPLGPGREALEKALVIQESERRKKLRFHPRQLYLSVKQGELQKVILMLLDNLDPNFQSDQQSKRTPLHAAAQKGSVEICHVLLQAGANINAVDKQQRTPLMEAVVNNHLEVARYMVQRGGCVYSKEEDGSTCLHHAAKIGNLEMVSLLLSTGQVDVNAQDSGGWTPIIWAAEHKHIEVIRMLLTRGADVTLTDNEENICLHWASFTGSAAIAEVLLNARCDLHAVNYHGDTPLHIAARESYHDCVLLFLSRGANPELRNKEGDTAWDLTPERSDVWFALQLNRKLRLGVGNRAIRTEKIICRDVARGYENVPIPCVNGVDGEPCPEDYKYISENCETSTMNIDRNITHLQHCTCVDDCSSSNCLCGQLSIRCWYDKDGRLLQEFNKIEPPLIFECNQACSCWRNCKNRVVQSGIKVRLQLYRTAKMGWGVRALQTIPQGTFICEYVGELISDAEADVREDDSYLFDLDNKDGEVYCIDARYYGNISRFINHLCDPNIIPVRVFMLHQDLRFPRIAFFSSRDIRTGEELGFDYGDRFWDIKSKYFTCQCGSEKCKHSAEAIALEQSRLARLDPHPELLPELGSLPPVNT
Kind of data set: Reversible inhibition of N-terminal GST-tagged recombinant human Histone-lysine N-methyltransferase G9a using S-(5'-adenosyl)-L-methionine chloride as substrate assessed as enzyme recovery at 10 fold IC50 preincubated for 30 mins followed by 100 fold dilution in presence of DTT.

Data set [2] concerns the target T2, Histone-lysine N-methyltransferase EHMT2 (Homo sapiens, UniProt Q96KQ7).
T2 sequence (Q96KQ7 whole entry): T1 sequence (whole entry)
Description: Competitive inhibition of N-terminal GST-tagged recombinant human Histone-lysine N-methyltransferase G9a using S-(5'-adenosyl)-L-methionine chloride as substrate preincubated for 30 mins followed by substrate addition measured after 30 mins

Data set [3] concerns the target T1, Histone-lysine N-methyltransferase EHMT2 (Homo sapiens). As to the kind of experiment: Inhibition of N-terminal GST-tagged recombinant human Histone-lysine N-methyltransferase G9a using S-(5'-adenosyl)-L-methionine chloride as substrate assessed as residual activity at 25 uM after 30 mins; values are per cent of control.
Data set [4] addresses T2, Histone-lysine N-methyltransferase EHMT2. Kind of data set: Inhibition of N-terminal GST-tagged recombinant human Histone-lysine N-methyltransferase G9a using S-(5'-adenosyl)-L-methionine chloride as substrate after 30 mins.
Data set [5] is described as follows: Inhibition of Neurospora crassa Histone H3-K9 methyltransferase dim-5.
Data set [6] can be described thus: Induction of H2O2 generation in HBSS/Phenol Red buffer at 10 to 100 uM preincubated for 15 mins by HRP assay in presence of DTT. In kind it is physicochemical. As to conditions: 0.25 h.
Data set [7] has as its target T1, Histone-lysine N-methyltransferase EHMT2 (Homo sapiens). As to the kind of experiment: Inhibition of N-terminal GST-tagged recombinant human Histone-lysine N-methyltransferase G9a using S-(5'-adenosyl)-L-methionine chloride as substrate assessed as nonspecific denaturation of enzyme at 0.05 to 25 uM preincubated for 30 mins in presence of urea and DTT.

Activity calls are given as the source filed them. The calls are words filed in the database; no cut-off is given here.

In the case of `O=C1[C@@H]2SS[C@@H](C(=O)N2Cc2ccccc2)N1Cc1ccccc1`, the inhibition result in data set [1] was “Active”. The values for the IC50 in data set [2] and in data set [4] were 5.11 µM and 4.9 µM, respectively. Besides, the residual activity in data set [3] came to 19%.

Consider `CN1C(=O)[C@@]23C[C@]4([C@]56C[C@@]78SS[C@@](CO)(C(=O)N7[C@H]5Nc5ccccc56)N(C)C8=O)c5ccccc5N[C@@H]4N2C(=O)[C@]1(CO)SS3` [CHAETOCIN], for which the IC50 in data set [5] turned out to be 3 µM; in data set [4], 2.6 µM. Moreover, the inhibition result in data set [1] and in data set [7] was “Active” throughout. Also, the Activity entry in data set [6] is “Not Active”. In addition, in data set [3], the residual activity is 8%.

`Nc1ncnc2c1ncn2[C@@H]1O[C@H](CSCC[C@H](N)C(=O)O)[C@@H](O)[C@H]1O`: the inhibition result in data set [7] was “inactive”.

On to `CN1C(=O)[C@@]23C[C@]4([C@]56C[C@@]78S[C@@](CO)(C(=O)N7[C@H]5Nc5ccccc56)N(C)C8=O)c5ccccc5N[C@@H]4N2C(=O)[C@]1(CO)S3`, for which the residual activity in data set [3] amounted to 36%. In data set [4], the IC50 was found to be 10.6 µM.

A word on the IC50: it is the concentration needed to halve the response being measured. A word on the residual activity: it is the share of the control activity or signal that is left under treatment.
